Entries after “also recorded” stand apart in the source; their conditions may differ.
Tests used:
Olfr110 [1] = assay: Odorant receptor / Olfr110 expression in microglia (qRT-PCR, immunostaining); format: cell-based, mouse; conditions: vs control
Text: For the measurement of mRNA, RNA was isolated from red blood cells, microglia, astrocytes, Hana3A cells, or cerebral cortical cells using the MagNa Lyser (Roche Molecular Diagnostics) using TRIzol reagent (Invitrogen, Carlsbad, CA.) according to the manufacturer's protocol. Then, cDNA was generated through reverse transcription using the isolated mRNA (using PrimeScript™ 1st str and cDNA Synthesis kit—#6110; Takara Bio Inc). This process was quantitatively measured in real time through quantitative real-time-PCR (using LightCycler® 480 SYBR Green I Master). The measured values were calculated using the 2-ΔΔCt method.
Thereafter, the cells were washed with PBS and fixed in 4% paraformaldehyde (#6148; Sigma Aldrich) for 5 minutes. Subsequently, the cells were cultured in PBS containing 4% normal horse serum (#008-000-121; Jackson ImmunoResearch) and 0.1% TWEEN® 20 (#P9416; Sigma-Aldrich) at room temperature for 1 hour. Then, the cells were […] at 4° C. overnight with the primary antibodies listed below. The antibodies are as follows: Olfr110 (rabbit-anti-Olfr110; 1:10,000; #ab177327; Abcam), Iba-1 (goat-anti-Iba-1; 1:1,000; #ab5076; Abcam), and GFAP (mouse-anti-GFAP; 1:1,000; #556330; BD Biosciences). Samples were cultured with secondary antibodies in PBS including 0.1% TWEEN® 20 (#P9416; Sigma-Aldrich) at room temperature for 1 hour. […]

microglia = assay: Ex vivo phagocytosis of microglia in brain slices (time-lapse confocal); set-up: species or system mouse; conditions: brain slices of CX3CR1 GFP/+ mice
Experimental: In this experiment, in order to examine the phagocytotic action of microglia, the brain of a 9-week-old male CX3CR1^GFP/+ mouse was cut to a thickness of 150 μm using a vibratome (Leica VT1200) and then stored in an ice-cooled artificial cerebrospinal fluid (aCSF: 120 mM NaCl, […], 25 mM NaHCO3, 1.25 mM NaH2PO4, 5 mM KCl, 1 mM CaCl2, 1 mM MgSO4, […], pH7.4). Thereafter, the sliced brain was cultured for removal of cell debris. Oxygenated aCSF was pretreated in a perfusion chamber at 37° C. for 2 hours. Subsequently, before culture, the sliced brain was cultured with 500 μl of aCSF containing 9.10×10^7 microspheres ([…]; #17458; Polysciences) and covered with a custom-made nylon grid. Time lapse videos were taken at intervals of 1 minute for 92 minutes using a confocal microscope. The number of phagocytosing microglia was calculated from the images.

primary microglia [2] = assay: Active oxygen (ROS) production in primary microglia; format: cell-based, mouse
Experimental: Superoxide concentrations were calculated by measuring the degree of decrease in cytochrome c using a VersaMax microplate reader (Babior et al., 1973). Microglia were cultured on a 96-well plate at a concentration of 1.0×10^5 cells/well, and the microglia were activated by a 10 μM ATP solution containing 2-pentylfuran and cytochrome c, or a solution of Sup mixed with cytochalasin B (5 μM; #C66762; Sigma Aldrich). The resulting ROS concentration was measured by changes in light absorption at 550 nm at intervals of 1 minute for 25 minutes.
Active oxygen levels were measured using 2′,7′-dichlorodihydrofluorescein diacetate (DCF-DA, #D6883; Sigma Aldrich) using a method that had undergone minor modifications from the existing method. (Bae et al., 2001). More specifically, the primary microglia were treated with 10 μM DCF-DA in a 24-well plate (5.0×10^5 cells/well) […] at a temperature of 37° C. for 30 minutes. One plate was treated with 2-PF and one was not. Cells in each well were measured by a flow cytometer (FACS Accuri™ C6; BD Biosciences). MFI was measured in the same manner as described above.

primary microglia [3] = assay: Phagocytosis of FITC-dextran by primary microglia (FACS); format: cell-based, mouse; conditions: 100, 300, and 500 μM
Experimental: Primary microglia were cultured for 24 hours after being seeded in a 24-well plate (5×10^5 cells/well). Cells were pre-cultured with 2-PF or Sup for 30 minutes, transferred to FITC-dextran (1 mg/ml, 20 mg/ml in PBS; #FD70S; Sigma Aldrich) in serum-free DMEM at 37° C. for […], and washed with PBS at 4° C. Cells were detached by 0.25% trypsin in PBS (#15090-046; Thermo Fisher Scientific) and the detached cells were analyzed by FACS Accuri™ C6 (BD Biosciences). Mean fluorescence intensity (MFI) was calculated by integrating fluorescence histograms under each condition using the aforementioned software. The phagocytosis index was defined as MFI using an untreated group as a standard.

Olfr110 [4] = biological target: T1, Olfr110 (Mus musculus, UniProt A2RT31); assay: Luciferase assay in Hana3A cells, Olfr110; format: cell-based
T1 construct: Full-length odorant receptor genes from mouse and human genomic DNA were amplified using appropriate primers; Lucy (N); Flag (N); Rho (N); expressed in transfected cells; host or cells: Hana3A cells, co-transfected with RTP1S, pCRELuc and pRL-SV40
T1 sequence (A2RT31 1-317): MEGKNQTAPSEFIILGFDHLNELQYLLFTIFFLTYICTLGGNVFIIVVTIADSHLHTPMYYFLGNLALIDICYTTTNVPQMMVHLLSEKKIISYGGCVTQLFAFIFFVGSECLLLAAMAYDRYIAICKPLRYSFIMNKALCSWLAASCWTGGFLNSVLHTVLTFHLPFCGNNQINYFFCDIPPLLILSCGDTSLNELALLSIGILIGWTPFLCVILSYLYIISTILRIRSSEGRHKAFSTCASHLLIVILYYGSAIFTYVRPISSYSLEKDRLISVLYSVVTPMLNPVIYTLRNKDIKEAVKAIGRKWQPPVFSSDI
Experimental: Next, Hana3A cells were transfected with RTP1S, and their location and presence on the cell membrane were confirmed as previously described (Behrens et al., 2009; Zhuang and Matsunami, 2008). Such transfection was performed using Lipofectamine 2000 (#11668-019; Thermo Fisher Scientific) according to the manufacturer's instructions. More specifically, the transfected cells were grown on a coverslip (#0101050; Marienfeld) coated with poly D lysine (10 μg/ml; #P7280; Sigma Aldrich). Next, the cells were washed with a warm PBS solution and cooled with ice for 30 minutes to block endocytosis. […] The cells were then incubated with normal horse serum (#008-000-121; Jackson ImmunoResearch) at room temperature for 1 hour. […] After being washed with PBS, the cells were treated with a Cy3-conjugated donkey anti-mouse antibody (1:1,000; #715-165-150; Jackson ImmunoResearch), an Alexa488-conjugated donkey anti-mouse antibody (1:1,000; #715-545-150; Jackson ImmunoResearch), or a Cy3-conjugated donkey anti-rabbit antibody (1:1,000; #711-165-152; Jackson ImmunoResearch) at room temperature for 1 hour. The cells were mounted with a Vectashield fluorescent mounting medium containing DAPI (#H-1200; Vector Laboratories). The expression of heterologous odorant receptors was analyzed with a confocal laser scanning microscope LSM700 and ZEN software (Zeiss).
The Dual-Glo luciferase assay system (#E2940; Promega) was used for odorant receptor ligand screening. More specifically, Hana3A cells were streaked and spread on a white polystyrene 96-well plate (#353296; BD Biosciences) one day before transfection. pCRELuc (1 μg; #219076; Agilent Technologies), pRL-SV40 (1 μg; #E2231; Promega), RTP1S (1 μg), and OR (6 μg; or Mock) vectors were transfected for 24 hours in each plate. Each plate was analyzed using Lipofectamine 2000 (#11668-019; Thermo Fisher Scientific) according to the manufacturer's protocol. Transfected cells were stimulated in CD293 medium (#11913-019; Thermo Fisher Scientific) at 37° C. for 4 hours using diluted odorants at various concentrations. The activity of luciferase was normalized by the activity of Renilla luciferase. The amount of light emitted was measured using a SpectraMax L microplate reader (Molecular Devices).

CCCCCc1ccco1 [2-PF, 2-pentylfuran]
Olfr110 protein level (immunostaining) (Olfr110 [1]): significantly increases | ex vivo phagocytosis activity of microglia (microglia): increased | production of active oxygen on top of Sup MOI 5 (primary microglia [2]; 500 μM 2-PF): further increased | active oxygen secretion of microglia (primary microglia [2]; 100, 300, and 500 μM): significantly increased in a concentration-dependent manner | phagocytosis of microglia (primary microglia [3]): significantly increased in a concentration-dependent manner | mode of action at Olfr110 (Olfr110 [4]): agonist | reactivity of Olfr110 (relative luciferase activity) (Olfr110 [4]; Hana3A cells): particularly strong reactivity; also recorded: strongest reactivity
